{"source": "patent US20020137929A1", "about": "“1 - (3-heterocyclylphenyl) isothiourea, -isourea, -guanidine and -amidine herbicidal agents” (Intellectual Property Department, BASF Aktiengesellschaft, priority 1998, published 2002)", "key": {"AMBEL (Ragweed, Common)": {"tested_on": "AMBEL (Ragweed, Common)", "assay": "Postemergence herbicidal evaluation", "format": "in vivo, Ambrosia artemisifolia", "settings": "postemergence", "how_it_was_run": "(§1)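 Seedlings grown about two weeks were sprayed at 40 psi with compound dispersed in 50/50 acetone/water plus 0.5% TWEEN 20, at about 0.0156 to 0.500 kg/ha. Plants were kept in the greenhouse and scored 4–5 weeks later on a 0–9 visual scale against untreated controls.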"}, "CASOB (Sicklepod) [1]": {"tested_on": "CASOB (Sicklepod)", "assay": "Postemergence herbicidal evaluation", "format": "in vivo, Cassia obtusifolia", "settings": "postemergence", "how_it_was_run": "as §1"}, "[2]": {"tested_on": "CHEAL (Lambsquarters, Common)", "assay": "Postemergence herbicidal evaluation", "format": "in vivo, Chenopodium album", "settings": "postemergence", "how_it_was_run": "as §1"}, "GALAP (Galium) [3]": {"tested_on": "GALAP (Galium)", "assay": "Postemergence herbicidal evaluation", "format": "in vivo, Galium aparine", "settings": "postemergence", "how_it_was_run": "as §1"}, "ECHCG (Barnyardgrass)": {"tested_on": "ECHCG (Barnyardgrass)", "assay": "Postemergence herbicidal evaluation", "format": "in vivo, Echinochloa crus-galli", "settings": "postemergence", "how_it_was_run": "as §1"}, "SETVI (Foxtail, Green)": {"tested_on": "SETVI (Foxtail, Green)", "assay": "Postemergence herbicidal evaluation", "format": "in vivo, Setaria viridis", "settings": "postemergence", "how_it_was_run": "as §1"}, "[4]": {"tested_on": "GLXMAW (Soybean, Williams)", "assay": "Postemergence herbicidal evaluation", "format": "in vivo, Glycine max, (L.) Merr. cv Williams", "settings": "postemergence", "how_it_was_run": "as §1"}, "ORYSAT (Rice, Tebonnet)": {"tested_on": "ORYSAT (Rice, Tebonnet)", "assay": "Postemergence herbicidal evaluation", "format": "in vivo, Oryza sativa, (L.) Tebonnet", "settings": "postemergence", "how_it_was_run": "as §1"}, "CASOB (Sicklepod) [5]": {"tested_on": "CASOB (Sicklepod)", "assay": "Preemergence herbicidal evaluation", "format": "in vivo, Cassia obtusifolia", "settings": "rated 4-5 weeks after treatment", "how_it_was_run": "(§2)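 Sown cups got a single aqueous acetone spray of test compound (roughly 0.0156–0.500 kg/ha) before seedlings emerged. Evaluation, 4–5 weeks on, used a 0–9 visual scale covering plant stand, vigor, size, malformation, chlorosis and general appearance compared with controls.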"}, "GALAP (Galium) [6]": {"tested_on": "GALAP (Galium)", "assay": "Preemergence herbicidal evaluation", "format": "in vivo, Galium aparine", "settings": "rated 4-5 weeks after treatment", "how_it_was_run": "as §2"}, "ZEAMX (Corn, Field)": {"tested_on": "ZEAMX (Corn, Field)", "assay": "Preemergence herbicidal evaluation", "format": "in vivo, Zea mays", "settings": "rated 4-5 weeks after treatment", "how_it_was_run": "as §2"}, "CYPIR (Rice Flatsedge)": {"tested_on": "CYPIR (Rice Flatsedge)", "assay": "Preemergence weed control under flooded paddy conditions", "format": "in vivo, Cyperus iria", "settings": "rated 3-4 weeks after treatment", "how_it_was_run": "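Visual injury scored 0-9 against control three to four weeks post-treatment, greenhouse-grown. Application: acetone/water (50/50) solutions dosed directly into flood water (1.5-3 cm over silt loam, planted top 0.5 cm), roughly 0.0313 to 0.500 kg/ha active ingredient.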"}, "CYPSE (Flatsedge)": {"tested_on": "CYPSE (Flatsedge)", "assay": "Preemergence weed control under flooded paddy conditions", "format": "in vivo, Cyperus serotinus", "settings": "rated 3-4 weeks after treatment", "how_it_was_run": "(§3)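 Ratings on a 0-9 visual scale cover stand, vigor, malformation, size, chlorosis and overall appearance relative to a control, taken three to four weeks post-treatment. Application was into flood water over freshly sown silt loam at roughly 0.0313 to 0.500 kg/ha.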"}, "[7]": {"tested_on": "SAGPY (Arrowhead (Pygmaea))", "assay": "Preemergence weed control under flooded paddy conditions", "format": "in vivo, Sagittaria pygmaea", "settings": "rated 3-4 weeks after treatment", "how_it_was_run": "as §3"}}}
{"smiles": "CC(C)N1C(=O)CSC1=Nc1cc(-n2c(=O)cc(C(F)(F)F)n(C)c2=O)c(F)cc1Cl", "note": "[Compound 164, 3-{4-Chloro-2-fluoro-5-[(3-isopropyl-4-oxo-2-thiazolidinylidene)amino]phenyl}-1-methyl-6-(trifluoromethyl)-2,4(1H,3H)-pyrimidinedione]", "values": [{"measurement": "Herbicidal rating AMBEL", "setting": "AMBEL (Ragweed, Common); rate 0.0156 kg/ha", "result": 7.0}, {"measurement": "Herbicidal rating AMBEL", "setting": "AMBEL (Ragweed, Common); rate 0.0313 kg/ha", "result": 9.0}, {"measurement": "Herbicidal rating AMBEL", "setting": "AMBEL (Ragweed, Common); rate 0.0625 kg/ha", "result": 9.0}, {"measurement": "Herbicidal rating AMBEL", "setting": "AMBEL (Ragweed, Common); rate 0.1250 kg/ha", "result": 9.0}, {"measurement": "Herbicidal rating CASOB", "setting": "CASOB (Sicklepod) [1]; rate 0.0156 kg/ha", "result": 2.0}, {"measurement": "Herbicidal rating CASOB", "setting": "CASOB (Sicklepod) [1]; rate 0.0313 kg/ha", "result": 2.0}, {"measurement": "Herbicidal rating CASOB", "setting": "CASOB (Sicklepod) [1]; rate 0.0625 kg/ha", "result": 5.0}, {"measurement": "Herbicidal rating CASOB", "setting": "CASOB (Sicklepod) [1]; rate 0.1250 kg/ha", "result": 6.0}, {"measurement": "Herbicidal rating CHEAL", "setting": "[2]; rate 0.0156 kg/ha", "result": 9.0}, {"measurement": "Herbicidal rating CHEAL", "setting": "[2]; rate 0.0313 kg/ha", "result": 9.0}, {"measurement": "Herbicidal rating CHEAL", "setting": "[2]; rate 0.0625 kg/ha", "result": 9.0}, {"measurement": "Herbicidal rating CHEAL", "setting": "[2]; rate 0.1250 kg/ha", "result": 9.0}, {"measurement": "Herbicidal rating GALAP", "setting": "GALAP (Galium) [3]; rate 0.0156 kg/ha", "result": 3.0}, {"measurement": "Herbicidal rating GALAP", "setting": "GALAP (Galium) [3]; rate 0.0313 kg/ha", "result": 4.0}, {"measurement": "Herbicidal rating GALAP", "setting": "GALAP (Galium) [3]; rate 0.0625 kg/ha", "result": 7.0}, {"measurement": "Herbicidal rating GALAP", "setting": "GALAP (Galium) [3]; rate 0.1250 kg/ha", "result": 6.0}, {"measurement": "Herbicidal rating ECHCG", "setting": "ECHCG (Barnyardgrass); rate 0.0156 kg/ha", "result": 2.0}, {"measurement": "Herbicidal rating ECHCG", "setting": "ECHCG (Barnyardgrass); rate 0.0313 kg/ha", "result": 3.0}, {"measurement": "Herbicidal rating ECHCG", "setting": "ECHCG (Barnyardgrass); rate 0.0625 kg/ha", "result": 3.0}, {"measurement": "Herbicidal rating ECHCG", "setting": "ECHCG (Barnyardgrass); rate 0.1250 kg/ha", "result": 3.0}, {"measurement": "Herbicidal rating SETVI", "setting": "SETVI (Foxtail, Green); rate 0.0156 kg/ha", "result": 4.0}, {"measurement": "Herbicidal rating SETVI", "setting": "SETVI (Foxtail, Green); rate 0.0313 kg/ha", "result": 7.0}, {"measurement": "Herbicidal rating SETVI", "setting": "SETVI (Foxtail, Green); rate 0.0625 kg/ha", "result": 9.0}, {"measurement": "Herbicidal rating SETVI", "setting": "SETVI (Foxtail, Green); rate 0.1250 kg/ha", "result": 6.0}, {"measurement": "Herbicidal rating GLXMAW", "setting": "[4]; rate 0.0156 kg/ha", "result": 6.0}, {"measurement": "Herbicidal rating GLXMAW", "setting": "[4]; rate 0.0313 kg/ha", "result": 6.0}, {"measurement": "Herbicidal rating GLXMAW", "setting": "[4]; rate 0.0625 kg/ha", "result": 7.0}, {"measurement": "Herbicidal rating GLXMAW", "setting": "[4]; rate 0.1250 kg/ha", "result": 7.5}, {"measurement": "Herbicidal rating ORYSAT", "setting": "ORYSAT (Rice, Tebonnet); rate 0.0156 kg/ha", "result": 2.5}, {"measurement": "Herbicidal rating ORYSAT", "setting": "ORYSAT (Rice, Tebonnet); rate 0.0313 kg/ha", "result": 4.0}, {"measurement": "Herbicidal rating ORYSAT", "setting": "ORYSAT (Rice, Tebonnet); rate 0.0625 kg/ha", "result": 5.0}, {"measurement": "Herbicidal rating ORYSAT", "setting": "ORYSAT (Rice, Tebonnet); rate 0.1250 kg/ha", "result": 5.0}, {"measurement": "Preemergence herbicidal rating CASOB", "setting": "CASOB (Sicklepod) [5]; 0.0156 kg/ha", "result": 1.0}, {"measurement": "Preemergence herbicidal rating CASOB", "setting": "CASOB (Sicklepod) [5]; 0.0313 kg/ha", "result": 0.0}, {"measurement": "Preemergence herbicidal rating CASOB", "setting": "CASOB (Sicklepod) [5]; 0.0625 kg/ha", "result": 7.0}, {"measurement": "Preemergence herbicidal rating CASOB", "setting": "CASOB (Sicklepod) [5]; 0.1250 kg/ha", "result": 7.0}, {"measurement": "Preemergence herbicidal rating CASOB", "setting": "CASOB (Sicklepod) [5]; 0.2500 kg/ha", "result": 9.0}, {"measurement": "Preemergence herbicidal rating CASOB", "setting": "CASOB (Sicklepod) [5]; 0.5000 kg/ha", "result": 5.0}, {"measurement": "Preemergence herbicidal rating GALAP", "setting": "GALAP (Galium) [6]; 0.0156 kg/ha", "result": 3.0}, {"measurement": "Preemergence herbicidal rating GALAP", "setting": "GALAP (Galium) [6]; 0.0313 kg/ha", "result": 4.0}, {"measurement": "Preemergence herbicidal rating GALAP", "setting": "GALAP (Galium) [6]; 0.0625 kg/ha", "result": 4.0}, {"measurement": "Preemergence herbicidal rating GALAP", "setting": "GALAP (Galium) [6]; 0.1250 kg/ha", "result": 9.0}, {"measurement": "Preemergence herbicidal rating GALAP", "setting": "GALAP (Galium) [6]; 0.2500 kg/ha", "result": 7.0}, {"measurement": "Preemergence herbicidal rating GALAP", "setting": "GALAP (Galium) [6]; 0.5000 kg/ha", "result": 9.0}, {"measurement": "Preemergence herbicidal rating ZEAMX", "setting": "ZEAMX (Corn, Field); 0.0156 kg/ha", "result": 2.0}, {"measurement": "Preemergence herbicidal rating ZEAMX", "setting": "ZEAMX (Corn, Field); 0.0313 kg/ha", "result": 3.0}, {"measurement": "Preemergence herbicidal rating ZEAMX", "setting": "ZEAMX (Corn, Field); 0.0625 kg/ha", "result": 6.0}, {"measurement": "Preemergence herbicidal rating ZEAMX", "setting": "ZEAMX (Corn, Field); 0.1250 kg/ha", "result": 7.0}, {"measurement": "Preemergence herbicidal rating ZEAMX", "setting": "ZEAMX (Corn, Field); 0.2500 kg/ha", "result": 8.0}, {"measurement": "Preemergence herbicidal rating ZEAMX", "setting": "ZEAMX (Corn, Field); 0.5000 kg/ha", "result": 9.0}, {"measurement": "herbicidal effect rating, CYPIR", "setting": "CYPIR (Rice Flatsedge); 0.0313 kg/ha", "result": 3.0}, {"measurement": "herbicidal effect rating, CYPIR", "setting": "CYPIR (Rice Flatsedge); 0.0625 kg/ha", "result": 5.0}, {"measurement": "herbicidal effect rating, CYPIR", "setting": "CYPIR (Rice Flatsedge); 0.1250 kg/ha", "result": 6.0}, {"measurement": "herbicidal effect rating, CYPIR", "setting": "CYPIR (Rice Flatsedge); 0.2500 kg/ha", "result": 9.0}, {"measurement": "herbicidal effect rating, CYPSE", "setting": "CYPSE (Flatsedge); 0.0313 kg/ha", "result": 0.0}, {"measurement": "herbicidal effect rating, CYPSE", "setting": "CYPSE (Flatsedge); 0.0625 kg/ha", "result": 0.0}, {"measurement": "herbicidal effect rating, CYPSE", "setting": "CYPSE (Flatsedge); 0.1250 kg/ha", "result": 3.0}, {"measurement": "herbicidal effect rating, CYPSE", "setting": "CYPSE (Flatsedge); 0.2500 kg/ha", "result": 7.0}, {"measurement": "herbicidal effect rating, SAGPY", "setting": "[7]; 0.0313 kg/ha", "result": 4.0}, {"measurement": "herbicidal effect rating, SAGPY", "setting": "[7]; 0.0625 kg/ha", "result": 4.0}, {"measurement": "herbicidal effect rating, SAGPY", "setting": "[7]; 0.1250 kg/ha", "result": 5.0}, {"measurement": "herbicidal effect rating, SAGPY", "setting": "[7]; 0.2500 kg/ha", "result": 6.0}]}
